Results from PubChem BioAssay (NCI).
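All cell lines were grown in 96-well plates and treated with compound for 48 hours. The concentration for 50% growth inhibition is given as GI50. Definition used: TGI = concentration required for complete inhibition of growth.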

Legend:
Test in all cases: DTP human tumour cell line panel, 48 h
OVCAR-4 ovarian = test system: OVCAR-4 ovarian
MOLT-4 leukemia = test system: MOLT-4 leukemia
KM12 colon = test system: KM12 colon
SF-268 CNS = test system: SF-268 CNS
MDA-MB-231 breast = test system: MDA-MB-231 breast
UO-31 renal = test system: UO-31 renal
OVCAR-5 ovarian = test system: OVCAR-5 ovarian
IGROV1 ovarian = test system: IGROV1 ovarian
HS 578T breast = test system: HS 578T breast
SK-OV-3 ovarian = test system: SK-OV-3 ovarian

Row | SMILES | GI50 (OVCAR-4 ovarian) | TGI (OVCAR-4 ovarian) | GI50 (MOLT-4 leukemia) | TGI (MOLT-4 leukemia) | GI50 (KM12 colon) | TGI (KM12 colon) | GI50 (SF-268 CNS) | TGI (SF-268 CNS) | GI50 (MDA-MB-231 breast) | TGI (MDA-MB-231 breast) | GI50 (UO-31 renal) | TGI (UO-31 renal) | GI50 (OVCAR-5 ovarian) | TGI (OVCAR-5 ovarian) | GI50 (IGROV1 ovarian) | TGI (IGROV1 ovarian) | GI50 (HS 578T breast) | TGI (HS 578T breast) | GI50 (SK-OV-3 ovarian) | TGI (SK-OV-3 ovarian)
1 | Cc1cc(=O)[nH]c(N/N=C/c2ccccc2O)n1 | 2.25 µM | > 100 µM | 4.95 µM | > 100 µM | 18.4 µM | > 100 µM | 7.75 µM | > 100 µM | 6.05 µM | > 100 µM | 5.3 µM | > 100 µM | 7.42 µM | > 100 µM | 3.77 µM | > 100 µM | > 100 µM | > 100 µM | 6.88 µM | > 100 µM
2 | O=C1NC(=O)C(=Cc2cn(Cc3ccccc3)c3ccccc23)C(=O)N1 | 4.84 µM | 21 µM | 12.9 µM | 32.9 µM | 15.9 µM | 31.5 µM | 15.8 µM | 32.9 µM | 15.2 µM | 43.9 µM | 12 µM | 31 µM | 0.332 µM | 2.15 µM | 0.489 µM | 10.5 µM | 8.71 µM | 29.3 µM | 6.3 µM | 29 µM
3 | Cc1nc(NS(=O)(=O)c2ccc(NCN3C(=O)c4ccccc4C3=O)cc2)oc1C | > 100 µM | > 100 µM | > 100 µM | > 100 µM | > 100 µM | > 100 µM | > 100 µM | > 100 µM | > 100 µM | > 100 µM | > 100 µM | > 100 µM | > 100 µM | > 100 µM | > 100 µM | > 100 µM | > 100 µM | > 100 µM | > 100 µM | > 100 µM
4 | CCCCC#Cc1c(I)n(C2OC(CO[Si](C)(C)C(C)(C)C)C3OC(C)(C)OC32)c(=O)n(C(=O)c2ccccc2)c1=O (stereo not given) | 14 µM | 27.2 µM | 5.79 µM | 23.6 µM | 1.5 µM | 3.05 µM | 2.06 µM | 4.85 µM | 17.7 µM | 37.7 µM | 1.97 µM | 7.51 µM | 17.1 µM | 31.7 µM | 3.96 µM | 13.4 µM | 7.17 µM | 43.6 µM | 14.8 µM | 27.9 µM
5 | C=C(C)[C@@H]1CCc2c(O)c(O)c(=O)cc(C)c2C1 |  | > 100 µM |  | > 25.2 µM |  | > 100 µM |  | > 100 µM |  | > 100 µM |  | > 25.5 µM |  | > 100 µM |  | > 100 µM |  | > 100 µM |  | > 100 µM
6 | O=C1OCC2=C1C(c1cccc(C(F)(F)F)c1)c1cc3c(cc1N2CCO)OCCO3 (stereo not given) | 6.41 µM | > 33.3 µM | 1.93 µM | > 33.3 µM | 1.08 µM | > 33.3 µM | 2.54 µM | > 33.3 µM | 1.7 µM | > 33.3 µM | 1.95 µM | > 33.3 µM | 1.75 µM | > 33.3 µM | 2.75 µM | > 33.3 µM | 0.915 µM | > 33.3 µM | 1.29 µM | > 33.3 µM
7 | N#CC1=C(N)NC(N2CCOCC2)=NC12Nc1ccccc1O2 (stereo not given) | > 100 µM | > 100 µM | 43 µM | > 100 µM | 49.8 µM | > 100 µM | 33.8 µM | > 100 µM | 89.9 µM | > 100 µM | 31.9 µM | > 100 µM | > 100 µM | > 100 µM | 9.47 µM | 57.5 µM | 23.6 µM | 68.1 µM | > 100 µM | > 100 µM
8 | COc1cc(C2c3cc4c(cc3OC(O)C2C)OCO4)cc(OC)c1OC (stereo not given) |  | > 79.4 µM |  | > 31.9 µM |  | 27.2 µM |  | > 58.9 µM |  | 17.4 µM |  | 40.7 µM |  | > 100 µM |  | 51.1 µM |  | > 100 µM |  | 23.3 µM
9 | COc1ccc(C2NN=C3c4ccccc4CCC32)cc1 (stereo not given) | 3.31 µM | 24.6 µM | 4.04 µM | > 100 µM | 3.99 µM | > 100 µM | 15.7 µM | > 100 µM | 17.8 µM | > 100 µM | 24.1 µM | > 100 µM | 18.4 µM | > 100 µM | 2.7 µM | 21.4 µM | 15 µM | > 100 µM | 20.4 µM | > 100 µM
10 | COc1c(OC)c(OC)c2c(=O)cc(-c3ccc(OC(C)C)cc3)oc2c1OC |  | > 49.2 µM |  | 23.8 µM |  | > 100 µM |  | > 51.8 µM |  | > 54.2 µM |  | > 47.3 µM |  | > 51.9 µM |  | > 56.8 µM |  | 52.5 µM |  | > 50.5 µM
11 | CCCCCCCCCCCNC=O |  | > 100 µM |  | 60.6 µM |  | > 100 µM |  | > 100 µM |  | > 100 µM |  | > 100 µM |  | > 100 µM |  | > 100 µM |  | > 100 µM |  | > 100 µM
12 | COc1cc(Cl)c(CC(=O)c2c[nH]c3ccccc23)cc1OC |  | > 100 µM |  | > 100 µM |  | > 100 µM |  | > 100 µM |  | > 52.6 µM |  | > 43.3 µM |  | > 100 µM |  | > 100 µM |  | > 100 µM |  | 40 µM
13 | COC1=C(OC)C(=O)C(C/C=C(\C)CC/C=C(\C)CC/C=C(\C)CC/C=C(\C)CC/C=C(\C)CC/C=C(\C)CC/C=C(\C)CC/C=C(\C)CC/C=C(\C)CCC=C(C)C)=C(C)C1=O | > 100 µM | > 100 µM | > 100 µM | > 100 µM | > 100 µM | > 100 µM | > 100 µM | > 100 µM | > 100 µM | > 100 µM | > 100 µM | > 100 µM | > 100 µM | > 100 µM | > 100 µM | > 100 µM | > 100 µM | > 100 µM | > 100 µM | > 100 µM
14 | Cc1ccc(S(=O)(=O)n2cc([C@@]3(O)C[C@H](CSC#N)OC3=O)c3ccccc32)cc1 | 15.6 µM | 43.3 µM | 1.71 µM | 4.52 µM | 4.65 µM | 23 µM | 5.1 µM | 19.7 µM | 8.44 µM | 22.4 µM | 4.62 µM | 19.3 µM | 13.2 µM | 28.2 µM | 7.54 µM | 22.4 µM | 8.7 µM | 32.6 µM | 58.8 µM | > 100 µM
